The results in this text go back to patent publication US20240182945A1, “PRODUCTS FOR REGULATION OF EUKARYOTIC AND MICROBIAL CELLS GROWTH” (priority 2021, published 2024).

The structures appear in SMILES notation. Starred links: 1 amine or outer side, 2 acyl side, 3 side chain; linkers in the order of their positions; H or OH if unused. Positions of bridges follow the written chain, without caps; N, C: chain ends. Non-standard residues stand in square brackets, D forms with d. Residues, ends and D or L forms follow the SMILES beside them. *: point of attachment. hTyr(3S-OH,4S-OH,3'-OSO3H) = N[C@H](C(=O)O)[C@H](O)[C@@H](O)c1ccc(O)c(OS(=O)(=O)O)c1; pTerphenylCO(4''-OnC5H11) = CCCCCOc1ccc(-c2ccc(-c3ccc(C(=O)*)cc3)cc2)cc1; Orn(4R-OH,5R-OH) = O=C([C@H](C[C@@H](O)[C@@H](O)N[*:3])N[*:1])[*:2]; hTyr(3S-OH,4S-OH) = N[C@H](C(=O)O)[C@H](O)[C@@H](O)c1ccc(O)cc1; Pro(3S-OH,4S-Me) = C[C@H]1CN[C@H](C(=O)O)[C@H]1O; X1 = CCCCCOc1ccc(-c2cc(-c3ccc(C(=O)*)cc3)no2)cc1; Gln(3R-OH) = NC(=O)C[C@@H](O)[C@H](N)C(=O)O; Hyp = O=C(O)[C@@H]1C[C@@H](O)CN1

In this test the test system is C. albicans, non-albicans Candida spp. Aspergillus spp. in oral swabs from patients with oral candidiasis. In words: Signs of fungal growth on 12 well plate test system supplemented with antifungal antibiotics. The test is classed as cell-based. To be noted: naked eye examination, samples resistant to the antibiotic. The protocol:
Oral swabs (n=6) from patients with confirmed oral candidiasis caused by C. albicans, non-albicans Candida spp. Aspergillus spp., were dissolved with PBS and 0.1 uL were plated on 12 well plate test system filled with Mixed Medium 1 (see above), Mixed Medium 2 (Sabouraud agar+Potato Dextrose Agar+vitamins B12+B7) (MM2), Sabouraud agar (SA), Potato Dextrose Agar (PDA), Sabouraud's Heart Infusion (SABHI) agar. 11 wells were filled with media supplemented with antibiotics (taken at mean concentration of each antibiotic achieved in lungs at different timpoints post drug administration)—Nystatin, Amphotericin B, Clotrimazole, Fluconazole, Isavuconazole, Terbinafin, Posaconazole, Voriconazole, Anidulafungin, Caspofungin, Micafungin. One well was antibiotic free.
Plates was incubated at 30 C and the analysis of the presence/absence of microbial growth was monitored every 15 minutes from […] to 5 h, then hourly from 5 h to 8 h and then at 18 and 24 h post plating with a naked eye.
Three methods (algorithms) how to analyze fungal growth were used.
Method (Algorithm) #1. Lab technician, analyzed the appearance of fungal growth by comparing the signs of fungal growth in each well supplemented with antibiotic(s) at certain timepoint, with the signs of funal growth in the same well at previous time point(s).
Method (Algorithm)#2. Lab technician analyzed the appearance of fungal growth by comparing the signs of fungal growth in each well supplemented with antibiotic(s) with fungal growth in antibiotic-free control
Method (Algorithm) #3. Lab technician analyzed the absence of fungal growth in the wells in fixed time period of 3.5 h; 5 h and 24 h.

Where [1] appears, read: Method (Algorithm) #1, MM1 medium.
[2] abbreviates: Method (Algorithm) #1, MM2 medium.
Where [3] appears, read: Method (Algorithm) #1, PDA medium.
[4] abbreviates: Method (Algorithm) #1, SA (Sabouraud agar).
[5] abbreviates: Method (Algorithm) #1, SABHI medium.
[6] abbreviates: Method (Algorithm) #2, MM1 medium.
The mark [7] stands for this setting: Method (Algorithm) #2, MM2 medium.
[8] abbreviates: Method (Algorithm) #2, PDA medium.
[9] abbreviates: Method (Algorithm) #2, SA (Sabouraud agar).
Setting [10] is: Method (Algorithm) #2, SABHI medium.

In the case of `CC[C@H](C)C[C@H](C)CCCCCCCCC(=O)N[C@H]1C[C@@H](O)[C@@H](NCCN)NC(=O)[C@@H]2[C@@H](O)CCN2C(=O)[C@H]([C@H](O)CCN)NC(=O)[C@H]([C@H](O)[C@@H](O)c2ccc(O)cc2)NC(=O)[C@@H]2C[C@@H](O)CN2C(=O)[C@H]([C@@H](C)O)NC1=O` [Caspofungin], the “Mean hour at which fungal growth became visible on the wells supplemented with a certain antibiotic” value (from here on “Mean hour”) reads like this: under setting [1], 3.5 h; under setting [2], 5 h; under setting [3], 6 h; under setting [4], 5.5 h; under setting [5], 7 h; under setting [6], 6 h. For the same compound, the “Mean hour” value was determined as 5.5 h under setting [7], 8 h under setting [8], 7.5 h under setting [9] and 8.5 h under setting [10].
For the compound `C[C@@H](c1ncncc1F)[C@](O)(Cn1cncn1)c1ccc(F)cc1F` [Voriconazole], the “Mean hour” value is, setting by setting: under setting [1], 4 h; under setting [2], 4.5 h; under setting [3], 5.5 h; under setting [4], 4.5 h; under setting [5], 5.5 h; under setting [6], 4.5 h. In addition, the “Mean hour” value was 4.5 h under setting [7], 6.5 h under setting [8], 8 h under setting [9] and 7 h under setting [10].
Consider `CCCCCOc1ccc(-c2ccc(-c3ccc(C(=O)N[C@H]4C[C@@H](O)[C@@H](O)NC(=O)[C@@H]5[C@@H](O)[C@@H](C)CN5C(=O)[C@H]([C@@H](C)O)NC(=O)[C@H]([C@H](O)[C@@H](O)c5ccc(O)cc5)NC(=O)[C@@H]5C[C@@H](O)CN5C(=O)[C@H]([C@@H](C)O)NC4=O)cc3)cc2)cc1` [Anidulafungin] ({pTerphenylCO(4''-OnC5H11)}-[Orn(4R-OH,5R-OH)]T[Hyp][hTyr(3S-OH,4S-OH)]T[Pro(3S-OH,4S-Me)]; lactam 1-C), for which the “Mean hour” value by setting is: under setting [1], 4 h; under setting [2], 5 h; under setting [3], 6.5 h; under setting [4], 5.5 h; under setting [5], 6.5 h; under setting [6], 5.5 h. Besides, the “Mean hour” value reads like this: under setting [7], 4.5 h; under setting [8], 7.5 h; under setting [9], 6.5 h; under setting [10], 8.5 h.
For the compound `CCCCCOc1ccc(-c2cc(-c3ccc(C(=O)N[C@H]4C[C@@H](O)[C@@H](O)NC(=O)[C@@H]5[C@@H](O)[C@@H](C)CN5C(=O)[C@H]([C@H](O)CC(N)=O)NC(=O)[C@H]([C@H](O)[C@@H](O)c5ccc(O)c(OS(=O)(=O)O)c5)NC(=O)[C@@H]5C[C@@H](O)CN5C(=O)[C@H]([C@@H](C)O)NC4=O)cc3)no2)cc1` [Micafungin] (X1-[Orn(4R-OH,5R-OH)]T[Hyp][hTyr(3S-OH,4S-OH,3'-OSO3H)][Gln(3R-OH)][Pro(3S-OH,4S-Me)]; lactam 1-C), the “Mean hour” value runs as follows: under setting [1], 4.5 h; under setting [2], 5 h; under setting [3], 6 h; under setting [4], 6 h; under setting [5], 5 h; under setting [6], 4.5 h. In addition, the “Mean hour” value by setting is: under setting [7], 5.5 h; under setting [8], 7.5 h; under setting [9], 8 h; under setting [10], 6.5 h.
Take `CC[C@@H]([C@H](C)O)n1ncn(-c2ccc(N3CCN(c4ccc(OC[C@@H]5CO[C@@](Cn6cncn6)(c6ccc(F)cc6F)C5)cc4)CC3)cc2)c1=O` [Posaconazole]: the “Mean hour” value by setting is: under setting [1], 3.5 h; under setting [2], 4.5 h; under setting [3], 5 h; under setting [4], 5 h; under setting [5], 5.5 h; under setting [6], 4.5 h. Moreover, the “Mean hour” value came out at 5 h under setting [7], 8.5 h under setting [8], 7 h under setting [9] and 7 h under setting [10].
As for `CN(C/C=C/C#CC(C)(C)C)Cc1cccc2ccccc12` [Terbinafin], the “Mean hour” value runs as follows: under setting [1], 4.5 h; under setting [2], 5 h; under setting [3], 5 h; under setting [4], 5 h; under setting [5], 5 h; under setting [6], 4.5 h. Also, the “Mean hour” value worked out at 5.5 h under setting [7], 8 h under setting [8], 6.5 h under setting [9] and 6.5 h under setting [10].
In the case of `C[C@@H]1[C@H](O)[C@@H](C)/C=C/C=C/C=C/C=C/C=C/C=C/C=C/[C@H](O[C@@H]2O[C@H](C)[C@@H](O)[C@H](N)[C@@H]2O)C[C@@H]2O[C@](O)(C[C@@H](O)C[C@@H](O)[C@H](O)CC[C@@H](O)C[C@@H](O)CC(=O)O[C@H]1C)C[C@H](O)[C@H]2C(=O)O` [Amphotericin B], the “Mean hour” value by setting is: under setting [1], 3 h; under setting [2], 5 h; under setting [3], 4.5 h; under setting [4], 6.5 h; under setting [5], 6 h; under setting [6], 5 h. Also, the “Mean hour” value is 5 h under setting [7], 7.5 h under setting [8], 7 h under setting [9] and 8 h under setting [10].
